Experimental findings from patent US8883963B2 (Cadila Healthcare Limited, priority 2007, dated 2014) are described below.

The structures appear in SMILES notation. Starred links: 1 amine or outer side, 2 acyl side, 3 side chain; linkers in the order of their positions; H or OH if unused. Non-standard residues stand in square brackets, D forms with d. Residues, ends and D or L forms follow the SMILES beside them. ξ: configuration not given here. *: point of attachment. X9 = CCc1cc(OC)ccc1-c1ccc(CC(NC(=S)[C@H](CC(=O)O)N*)C(=S)NC(CCCc2ccccc2F)C(N)=O)cc1; ξBip(2'-Et-4'-OMe) = CCc1cc(OC)ccc1-c1ccc(CC(N)C(=O)O)cc1; X6 = O=C(C(CCCc1ccc(Cl)cc1Cl)N[*:1])[*:2]; X10 = O=C(C(CCCc1ccc(F)cc1F)N[*:1])[*:2]; ξbishPhe(2-F) = NC(CCCc1ccccc1F)C(=O)O; ξαMePhe(2-F) = CC(N)(Cc1ccccc1F)C(=O)O; aThr = C[C@H](O)[C@H](N)C(=O)O; ξhhPhe = NC(CCCc1ccccc1)C(=O)O; ξAbu(4-CN) = N#CCCC(N)C(=O)O; Ac5c = NC1(C(=O)O)CCCC1; Aib = CC(C)(N)C(=O)O

The experiment has as its system RIN5F (Rat Insulinoma) cells. Kind of experiment: In vitro glucose-dependent insulin secretion (RIN5F cell assay screening protocol). The class given is cell-based. Conditions: 16.7 mM glucose load. Here is the method:
RIN5F (Rat Insulinoma) cells were cultured in RPMI 1640 medium supplemented with sodium pyruvate (1 mM) HEPES and Glucose (4.5 g/L) in a humidified incubator (5% CO2), at 37° C. After trypsinization, RIN5F cells were seeded at a concentration of 0.2×10^6 cells per well, in 12 well plates.
The buffer was replaced after 40 min. and the cells were incubated (37° C.) with the test peptidomimetics, at different concentration, for 30 min., both in the presence (16.7 mM) and absence (0 mM) of glucose load. The supernatant was collected and the insulin amount was measured by ultra sensitive Rat insulin ELISA kit (Crystal Chem, IL). The protein was estimated in the supernatant using Bicinchoninic Acid kit, according to the manufacturer's protocol (Sigma Aldrich, MO). The total insulin content obtained in Pico-gram (pg) was divided with the total protein (μg) in order to normalize for differences in cell density between wells.

As to `CCc1cc(OC)ccc1-c1ccc(CC(NC(=O)[C@H](CC(=O)O)NC(=O)[C@H](CO)NC(=O)[C@@H](NC(=O)[C@H](Cc2ccccc2)NC(=O)[C@@H](NC(=O)CNC(=O)[C@H](CCC(N)=O)NC(=O)[C@H](CO)NC(=O)[C@@H](N)Cc2c[nH]cn2)[C@@H](C)O)[C@@H](C)O)C(=O)NC(CCCc2ccc(F)cc2C(F)(F)F)C(N)=O)cc1` (single isomer, unassigned) [compound 48], the Insulin secretion stood at 12.9 ± 0.14 pg/µg/h (0.1 nM test compd.), 15.8 ± 0.13 pg/µg/h (1 nM test compd.) and 29.9 ± 0.15 pg/µg/h (10 nM test compd.).
Turning to `CCc1cc(OC)ccc1-c1ccc(CC(NC(=O)[C@H](CC(=O)O)NC(=O)[C@H](CO)NC(=O)[C@@H](NC(=O)C(C)(Cc2ccccc2F)NC(=O)[C@@H](NC(=O)CNC(=O)[C@H](CCC(N)=O)NC(=O)C(C)(C)NC(=O)[C@@H](N)Cc2c[nH]cn2)[C@@H](C)O)[C@@H](C)O)C(=O)NC(CCCc2cccc(Cl)c2)C(N)=O)cc1` (single isomer, unassigned) [compound 39], the Insulin secretion is, setting by setting: (0.1 nM test compd.) 11.1 ± 0.12 pg/µg/h; (1 nM test compd.) 13.1 ± 0.13 pg/µg/h; (10 nM test compd.) 19.0 ± 0.16 pg/µg/h.
Regarding `CCc1cc(OC)ccc1-c1ccc(CC(NC(=O)[C@H](CC(=O)O)NC(=O)[C@H](CO)NC(=O)[C@@H](NC(=O)C(C)(Cc2ccccc2F)NC(=O)[C@@H](NC(=O)CNC(=O)[C@H](CCC(N)=O)NC(=O)C(C)(C)NC(=O)[C@@H](N)Cc2c[nH]cn2)[C@@H](C)O)[C@@H](C)O)C(=O)NC(CCCc2ccccc2F)C(N)=O)cc1` (stereo partly drawn) [compound 85] (H-H[Aib]QGT[ξαMePhe(2-F)]TSD[ξBip(2'-Et-4'-OMe)][ξbishPhe(2-F)]-NH2), the Insulin secretion is, setting by setting: (0.1 nM test compd.) 11.9 ± 0.17 pg/µg/h; (1 nM test compd.) 14.2 ± 0.13 pg/µg/h; (10 nM test compd.) 27.6 ± 0.16 pg/µg/h.
For `CCc1cc(OC)ccc1-c1ccc(CC(NC(=O)[C@H](CC(=O)O)NC(=O)[C@H](CO)NC(=O)[C@@H](NC(=O)C(C)(Cc2ccccc2F)NC(=O)[C@@H](NC(=O)CNC(=O)[C@H](CCC(N)=O)NC(=O)C(C)(C)NC(=O)[C@H](Cc2c[nH]cn2)NC(C)=O)[C@H](C)O)[C@H](C)O)C(=O)NC(CCCc2ccccc2)C(N)=O)cc1` (single isomer, unassigned) [compound 101], the Insulin secretion was determined as 12.4 ± 0.22 pg/µg/h (0.1 nM test compd.), 15.2 ± 0.32 pg/µg/h (1 nM test compd.) and 29.6 ± 0.50 pg/µg/h (10 nM test compd.).
With `CCc1cc(OC)ccc1-c1ccc(CC(NC(=O)[C@H](CC(=O)O)NC(=O)[C@H](CO)NC(=O)[C@@H](NC(=O)[C@H](Cc2ccccc2)NC(=O)[C@@H](NC(=O)CNC(=O)[C@H](CCC(N)=O)NC(=O)[C@H](CO)NC(=O)[C@@H](N)Cc2c[nH]cn2)[C@@H](C)O)[C@@H](C)O)C(=O)NC(CCCc2ccc(F)cc2F)C(N)=O)cc1` (stereo partly drawn) [compound 46] (H-HSQGTFTSD[ξBip(2'-Et-4'-OMe)][X10]-NH2), the Insulin secretion runs as follows: (0.1 nM test compd.) 12.7 ± 0.21 pg/µg/h; (1 nM test compd.) 15.8 ± 0.33 pg/µg/h; (10 nM test compd.) 29.3 ± 0.19 pg/µg/h.
The like results for `CCc1cc(OC)ccc1-c1ccc(CC(NC(=O)[C@H](CC(=O)O)NC(=O)[C@H](CO)NC(=O)[C@@H](NC(=O)C(C)(Cc2ccccc2F)NC(=O)[C@@H](NC(=O)CNC(=O)[C@H](CCC(N)=O)NC(=O)C(C)(C)NC(=O)[C@@H](N)Cc2c[nH]cn2)[C@H](C)O)[C@@H](C)O)C(=O)NC(CCCc2ccccc2F)C(N)=O)cc1` (stereo partly drawn) [compound 111] (H-H[Aib]QG[aThr][ξαMePhe(2-F)]TSD[ξBip(2'-Et-4'-OMe)][ξbishPhe(2-F)]-NH2) were, in that order, 16.2 ± 0.20 pg/µg/h, 22.2 ± 0.20 pg/µg/h and 36.1 ± 0.31 pg/µg/h.
As to `CCc1cc(OC)ccc1-c1ccc(CC(NC(=O)[C@H](CC(=O)O)NC(=O)[C@H](CO)NC(=O)[C@@H](NC(=O)C(C)(Cc2ccccc2F)NC(=O)[C@@H](NC(=O)CNC(=O)[C@H](CCC(N)=O)NC(=O)C(C)(C)NC(=O)[C@H](Cc2c[nH]cn2)NC(C)=O)[C@H](C)O)[C@H](C)O)C(=O)NC(CCCc2ccccc2F)C(N)=O)cc1` (single isomer, unassigned) [compound 103], the Insulin secretion amounted to 12.1 ± 0.51 pg/µg/h (0.1 nM test compd.), 14.1 ± 0.19 pg/µg/h (1 nM test compd.) and 28.1 ± 0.29 pg/µg/h (10 nM test compd.).
The corresponding values for `CCc1cc(OC)ccc1-c1ccc(CC(NC(=O)[C@H](CC(=O)O)NC(=O)[C@H](CO)NC(=O)[C@@H](NC(=O)C(C)(Cc2ccccc2F)NC(=O)[C@@H](NC(=O)CNC(=O)[C@H](CCC(N)=O)NC(=O)C(C)(C)NC(=O)[C@@H](N)Cc2c[nH]cn2)[C@H](C)O)[C@@H](C)O)C(=O)NC(CCCc2ccccc2)C(N)=O)cc1` (stereo partly drawn) [compound 109] (H-H[Aib]QG[aThr][ξαMePhe(2-F)]TSD[ξBip(2'-Et-4'-OMe)][ξhhPhe]-NH2) are 12.6 ± 0.25 pg/µg/h, 15.3 ± 0.31 pg/µg/h and 29.7 ± 0.48 pg/µg/h.
As to `CCc1cc(OC)ccc1-c1ccc(CC(NC(=S)[C@H](CC(=O)O)NC(=O)[C@H](CO)NC(=O)[C@@H](NC(=O)C(C)(Cc2ccccc2F)NC(=O)[C@@H](NC(=O)CNC(=O)[C@H](CCC(N)=O)NC(=O)C(C)(C)NC(=O)[C@H](Cc2c[nH]cn2)NC(C)=O)[C@H](C)O)[C@H](C)O)C(=S)NC(CCCc2ccccc2F)C(N)=O)cc1` (stereo partly drawn) [compound 175] (Ac-H[Aib]QG[aThr][ξαMePhe(2-F)][aThr]S-X9), the Insulin secretion is, setting by setting: (0.1 nM test compd.) 15.6 ± 0.33 pg/µg/h; (1 nM test compd.) 21.8 ± 0.16 pg/µg/h; (10 nM test compd.) 35.6 ± 0.26 pg/µg/h.
As for `CCc1cc(OC)ccc1-c1ccc(CC(NC(=O)[C@H](CC(=O)O)NC(=O)[C@H](CO)NC(=O)[C@@H](NC(=O)[C@H](Cc2ccccc2)NC(=O)[C@@H](NC(=O)CNC(=O)C(CCC#N)NC(=O)C(C)(C)NC(=O)[C@@H](N)Cc2c[nH]cn2)[C@@H](C)O)[C@@H](C)O)C(=O)NC(CCCc2ccc(Cl)cc2Cl)C(N)=O)cc1` (stereo partly drawn) [compound 83] (H-H[Aib][ξAbu(4-CN)]GTFTSD[ξBip(2'-Et-4'-OMe)][X6]-NH2), the Insulin secretion runs as follows: (0.1 nM test compd.) 12.3 ± 0.33 pg/µg/h; (1 nM test compd.) 14.1 ± 0.36 pg/µg/h; (10 nM test compd.) 28.0 ± 0.16 pg/µg/h.
The corresponding values for `CCc1cc(OC)ccc1-c1ccc(CC(NC(=O)[C@H](CC(=O)O)NC(=O)[C@H](CO)NC(=O)[C@@H](NC(=O)C(C)(Cc2ccccc2F)NC(=O)[C@@H](NC(=O)CNC(=O)[C@H](CCC(N)=O)NC(=O)C(C)(C)NC(=O)[C@@H](N)Cc2c[nH]cn2)[C@@H](C)O)[C@@H](C)O)C(=O)NC(CCCc2ccc(F)cc2F)C(N)=O)cc1` (stereo partly drawn) [compound 86] (H-H[Aib]QGT[ξαMePhe(2-F)]TSD[ξBip(2'-Et-4'-OMe)][X10]-NH2) are 12.3 ± 0.33 pg/µg/h, 14.8 ± 0.16 pg/µg/h and 28.1 ± 0.22 pg/µg/h.
The like results for `CCc1cc(OC)ccc1-c1ccc(CC(NC(=O)[C@H](CC(=O)O)NC(=O)[C@H](CO)NC(=O)[C@@H](NC(=O)C(C)(Cc2ccccc2F)NC(=O)[C@@H](NC(=O)CNC(=O)[C@H](CC(C(F)(F)F)C(F)(F)F)NC(=O)C(C)(C)NC(=O)[C@@H](N)Cc2c[nH]cn2)[C@@H](C)O)[C@@H](C)O)C(=O)NC(CCCc2cc(C)cc(C)c2)C(N)=O)cc1` (single isomer, unassigned) [compound 235] were, in that order, 12.6 ± 0.25 pg/µg/h, 15.3 ± 0.31 pg/µg/h and 29.7 ± 0.48 pg/µg/h.
The like results for `CCc1cc(OC)ccc1-c1ccc(CC(NC(=O)[C@H](CC(=O)O)NC(=O)[C@H](CO)NC(=O)[C@@H](NC(=O)[C@H](Cc2ccccc2)NC(=O)[C@@H](NC(=O)CNC(=O)[C@H](CCC(N)=O)NC(=O)C2(NC(=O)[C@@H](N)Cc3c[nH]cn3)CCCC2)[C@@H](C)O)[C@@H](C)O)C(=O)NC(CCCc2ccccc2)C(N)=O)cc1` (stereo partly drawn) [compound 25] (H-H[Ac5c]QGTFTSD[ξBip(2'-Et-4'-OMe)][ξhhPhe]-NH2) were, in that order, 15.6 ± 0.30 pg/µg/h, 21.8 ± 0.11 pg/µg/h and 35.6 ± 0.20 pg/µg/h.
